According to DBAASP:
In brackets after ≈: the same amount, converted by molar mass.

What was measured:
Experiment in all cases: ≥ marks a high value that may be exact or a test limit, other limits are often not marked, values filed in µg/mL are converted to µM
[1] = test system: Bacillus licheniformis X39
[2] = test system: Rhodococcus rhodochrous X15
[3] = test system: Escherichia coli ATCC 25922
Escherichia coli 804 = test system: Escherichia coli 804
[4] = test system: Acinetobacter baumannii 97830
[5] = test system: Acinetobacter baumannii 9931
[6] = test system: Pseudomonas aeruginosa ATCC 27853
[7] = test system: Pseudomonas aeruginosa 50
[8] = test system: Staphylococcus epidermidis ATCC 12228
Escherichia coli 780 = test system: Escherichia coli 780
[9] = test system: Pseudomonas aeruginosa 73
[10] = test system: Staphylococcus aureus ATCC 29213
Staphylococcus aureus 75 = test system: Staphylococcus aureus 75
[11] = test system: Klebsiella pneumoniae ATCC 700603
[12] = test system: Staphylococcus aureus 113
[13] = test system: Bacillus subtilis ATCC 23857
[14] = test system: Pseudomonas aeruginosa ATCC 9027
[15] = test system: Acinetobacter baumannii ATCC 19606
[16] = test system: Escherichia coli ATCC 2592
[17] = test system: Pseudomonas aeruginosa ATCC 10145
[18] = test system: Cryptococcus neoformans ATCC 32045
[19] = test system: Candida albicans ATCC 10231
[20] = test system: Staphylococcus aureus ATCC 33591

MIC (Escherichia coli 804) [µM]	MIC [4] [µM]	MIC [5] [µM]	MIC [6] [µM]	MIC [7] [µM]	MIC [8] [µM]	MIC (Escherichia coli 780) [µM]	MIC [9] [µM]	MIC [10] [µM]	MIC (Staphylococcus aureus 75) [µM]	MIC [11] [µM]	MIC [12] [µM]	MIC [13] [µM]	MIC [14] [µM]	MIC [15] [µM]	MIC [16] [µM]	MIC [17] [µM]	MIC [18] [µM]	MIC [19] [µM]	MIC [20] [µM]	Compound	further results
																				CC[C@H](C)[C@@H]1NC(=O)[C@H](CCCCN)NC(=O)[C@@H](NC(=O)[C@H](Cc2ccccc2)NC(=O)[C@H](CC(C)C)NC(=O)[C@@H](NC(=O)[C@@H]2CCCN2C(=O)[C@@H](NC(=O)[C@@H](NC(=O)[C@H](CC(N)=O)NC(=O)[C@H](C)NC(=O)[C@H](C)NC(=O)[C@@H](NC(=O)[C@H](CCCCN)NC(=O)[C@H](CC(C)C)NC(=O)[C@H](C)NC(=O)[C@@H](NC(=O)[C@H](CO)NC(=O)[C@H](CC(C)C)NC(=O)[C@@H](N)Cc2ccccc2)[C@@H](C)O)C(C)C)C(C)C)C(C)C)[C@@H](C)O)CSSC[C@@H](C(=O)O)NC(=O)[C@H](CCCCN)NC(=O)[C@H](CCCCN)NC(=O)[C@H]([C@@H](C)O)NC1=O [FLSTALKVAANVVPTLFCKITKKC]	MIC [1]: ≥ 75 µM; MIC [2]: 9 µM (≈ 23.3 µg/mL); MIC [3]: 150 µM (≈ 389 µg/mL)
8 (≈ 11.9 µg/mL)	8 (≈ 11.9 µg/mL)	8 (≈ 11.9 µg/mL)	32 (≈ 47.6 µg/mL)	16 (≈ 23.8 µg/mL)	4 (≈ 5.95 µg/mL)	16 (≈ 23.8 µg/mL)	≥ 32	4 (≈ 5.95 µg/mL)	8 (≈ 11.9 µg/mL)	8 (≈ 11.9 µg/mL)	4 (≈ 5.95 µg/mL)	4 (≈ 5.95 µg/mL)	32 (≈ 47.6 µg/mL)	32 (≈ 47.6 µg/mL)						CC[C@H](C)[C@H](N)C(=O)N[C@@H](Cc1c[nH]c2ccccc12)C(=O)N[C@@H](CCCN=C(N)N)C(=O)N[C@@H](Cc1c[nH]c2ccccc12)C(=O)N[C@@H](Cc1c[nH]c2ccccc12)C(=O)N[C@@H](Cc1c[nH]c2ccccc12)C(=O)N[C@@H](CCCN=C(N)N)C(=O)N[C@@H](Cc1c[nH]c2ccccc12)C(=O)N[C@H](C(N)=O)[C@@H](C)CC [IWRWWWRWI]	
															9.46 (≈ 22.6 µg/mL)	3.35 (≈ 8 µg/mL)	4.73 (≈ 11.3 µg/mL)	44.4 (≈ 106 µg/mL)	≥ 105	C[C@H](NC(=O)[C@H](Cc1ccccc1)NC(=O)[C@H](CCCCN)NC(=O)[C@H](CCCCN)NC(=O)[C@H](C)NC(=O)[C@H](Cc1ccccc1)NC(=O)[C@H](CCCCN)NC(=O)[C@H](CCCCN)NC(=O)[C@H](C)NC(=O)[C@H](Cc1ccccc1)NC(=O)[C@H](CCCCN)NC(=O)[C@H](CCCCN)NC(=O)[C@H](C)NC(=O)[C@H](Cc1ccccc1)NC(=O)[C@H](CCCCN)NC(=O)[C@H](CCCCN)NC(=O)[C@H](C)NC(=O)[C@H](Cc1ccccc1)NC(=O)[C@@H](N)CCCCN)C(=O)N[C@@H](CCCCN)C(=O)O [KFAKKFAKKFAKKFAKKFAK]	
															6.2 (≈ 22.6 µg/mL)	≥ 34.2	24.1 (≈ 88 µg/mL)	96.9 (≈ 354 µg/mL)	≥ 48.4	NCCCC[C@H](NC(=O)[C@H](Cc1ccccc1)NC(=O)[C@H](CCCCN)NC(=O)[C@H](CCCCN)NC(=O)[C@H](Cc1ccccc1)NC(=O)[C@H](CCCCN)NC(=O)[C@H](CCCCN)NC(=O)[C@H](Cc1ccccc1)NC(=O)[C@H](CCCCN)NC(=O)[C@H](CCCCN)NC(=O)[C@H](Cc1ccccc1)NC(=O)[C@H](CCCCN)NC(=O)[C@H](CCCCN)NC(=O)[C@H](Cc1ccccc1)NC(=O)[C@H](CCCCN)NC(=O)[C@H](CCCCN)NC(=O)[C@H](Cc1ccccc1)NC(=O)[C@H](CCCCN)NC(=O)[C@H](CCCCN)NC(=O)[C@H](Cc1ccccc1)NC(=O)[C@H](CCCCN)NC(=O)[C@H](CCCCN)NC(=O)[C@H](Cc1ccccc1)NC(=O)[C@H](CCCCN)NC(=O)[C@H](CCCCN)NC(=O)[C@H](Cc1ccccc1)NC(=O)[C@@H](N)CCCCN)C(=O)O [KFKKFKKFKKFKKFKKFKKFKKFKKFK]	
															≥ 36.2	25.5 (≈ 62 µg/mL)	≥ 36.2	> 206	≥ 103	CC(C)C[C@H](NC(=O)[C@H](CCCCN)NC(=O)[C@H](CCCCN)NC(=O)[C@H](CC(C)C)NC(=O)[C@H](CC(C)C)NC(=O)[C@H](CCCCN)NC(=O)[C@H](CCCCN)NC(=O)[C@H](CC(C)C)NC(=O)[C@H](CC(C)C)NC(=O)[C@H](CCCCN)NC(=O)[C@H](CCCCN)NC(=O)[C@H](CC(C)C)NC(=O)[C@H](CC(C)C)NC(=O)[C@H](CCCCN)NC(=O)[C@H](CCCCN)NC(=O)[C@H](CC(C)C)NC(=O)[C@H](CC(C)C)NC(=O)[C@H](CCCCN)NC(=O)[C@H](CCCCN)NC(=O)[C@@H](N)CC(C)C)C(=O)O [LKKLLKKLLKKLLKKLLKKL]	
≥ 64	≥ 64	≥ 32	32 (≈ 44.8 µg/mL)	≥ 128	4 (≈ 5.59 µg/mL)	≥ 64	≥ 128	8 (≈ 11.2 µg/mL)	8 (≈ 11.2 µg/mL)	64 (≈ 89.5 µg/mL)	16 (≈ 22.4 µg/mL)	4 (≈ 5.59 µg/mL)	32 (≈ 44.8 µg/mL)	128 (≈ 179 µg/mL)						CC(C)[C@H](N)C(=O)N[C@@H](CCCN=C(N)N)C(=O)N[C@@H](CCCN=C(N)N)C(=O)N[C@@H](Cc1c[nH]c2ccccc12)C(=O)N[C@@H](Cc1c[nH]c2ccccc12)C(=O)N[C@@H](Cc1c[nH]c2ccccc12)C(=O)N[C@@H](CCCN=C(N)N)C(=O)N[C@@H](CCCN=C(N)N)C(=O)N[C@H](C(N)=O)C(C)C [VRRWWWRRV]	
16 (≈ 23.3 µg/mL)	4 (≈ 5.83 µg/mL)	8 (≈ 11.7 µg/mL)	32 (≈ 46.7 µg/mL)	≥ 32	4 (≈ 5.83 µg/mL)	4 (≈ 5.83 µg/mL)	≥ 32	4 (≈ 5.83 µg/mL)	4 (≈ 5.83 µg/mL)	8 (≈ 11.7 µg/mL)	4 (≈ 5.83 µg/mL)	4 (≈ 5.83 µg/mL)	32 (≈ 46.7 µg/mL)	16 (≈ 23.3 µg/mL)						CC(C)[C@H](N)C(=O)N[C@@H](Cc1c[nH]c2ccccc12)C(=O)N[C@@H](CCCN=C(N)N)C(=O)N[C@@H](Cc1c[nH]c2ccccc12)C(=O)N[C@@H](Cc1c[nH]c2ccccc12)C(=O)N[C@@H](Cc1c[nH]c2ccccc12)C(=O)N[C@@H](CCCN=C(N)N)C(=O)N[C@@H](Cc1c[nH]c2ccccc12)C(=O)N[C@H](C(N)=O)C(C)C [VWRWWWRWV]	
